Experimental data published in ChEMBL document CHEMBL1131602 (J Med Chem, 1998).

Assays:
[1] = tested on: Plasmodium falciparum; experiment: In vitro inhibition of Plasmodium falciparum HB3 (S108N) culture; assay type: functional, organism-based
[2] = tested on: Plasmodium falciparum; experiment: In vitro inhibition of Plasmodium falciparum K1 (S108N + C59R) culture; assay type: functional, organism-based
[3] = target: T1, Bifunctional dihydrofolate reductase-thymidylate synthase (Plasmodium falciparum K1, UniProt P13922); experiment: Inhibitory activity against mutant Plasmodium falciparum DHFR-TS
Target sequence in this assay (P13922 whole entry, looked up): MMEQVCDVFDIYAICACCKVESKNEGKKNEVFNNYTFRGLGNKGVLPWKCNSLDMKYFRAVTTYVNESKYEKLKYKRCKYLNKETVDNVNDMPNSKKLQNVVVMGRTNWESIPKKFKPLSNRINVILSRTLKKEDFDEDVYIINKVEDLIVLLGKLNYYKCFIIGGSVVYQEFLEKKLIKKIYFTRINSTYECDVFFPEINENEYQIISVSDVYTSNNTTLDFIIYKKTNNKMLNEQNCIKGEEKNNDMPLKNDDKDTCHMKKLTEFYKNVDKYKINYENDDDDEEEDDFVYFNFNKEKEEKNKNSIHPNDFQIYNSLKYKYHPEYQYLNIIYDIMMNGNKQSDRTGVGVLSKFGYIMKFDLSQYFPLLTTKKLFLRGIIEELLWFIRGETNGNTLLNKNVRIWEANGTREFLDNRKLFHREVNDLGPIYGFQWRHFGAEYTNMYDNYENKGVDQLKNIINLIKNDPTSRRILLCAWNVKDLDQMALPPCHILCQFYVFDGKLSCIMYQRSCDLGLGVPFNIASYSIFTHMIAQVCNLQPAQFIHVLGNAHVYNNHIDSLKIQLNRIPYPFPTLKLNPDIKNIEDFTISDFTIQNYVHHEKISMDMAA

[4] = target: T1, Bifunctional dihydrofolate reductase-thymidylate synthase; experiment: Binding affinity was evaluated as inhibition of recombinant wild type (WT) Plasmodium falciparum DHFR-TS.
Target sequence in this assay (P13922 whole entry): as the sequence (P13922 whole entry, looked up) above

[5] = target: T1, Bifunctional dihydrofolate reductase-thymidylate synthase; experiment: Binding affinity was evaluated as inhibition of mutant (C59R + S108N) Plasmodium falciparum DHFR-TS.
Target sequence in this assay (P13922 whole entry): as the sequence (P13922 whole entry, looked up) above

[6] = target: T1, Bifunctional dihydrofolate reductase-thymidylate synthase; experiment: Inhibitory activity against recombinant wild type (WT) Plasmodium falciparum DHFR-TS
Target sequence in this assay (P13922 whole entry): as the sequence (P13922 whole entry, looked up) above

[7] = Ratio of inhibitions against mutant and wild type (WT) Plasmodium falciparum DHFR-TS.

SMILES | IC50 [1] [nM] | IC50 [2] [nM] | IC50 [3] [nM] | Ki [3] [nM] | Ki [4] [nM] | Ki [5] [nM] | IC50 [6] [nM] | Ratio [7]
CCc1nc(N)nc(N)c1-c1cccc(OC)c1 | 0.2 | 3.7 | 73 | 14 | 1.07 | 14 | 9.3 | 13.1
CCc1nc(N)nc(N)c1-c1ccc(Cl)cc1 [PYRIMETHAMINE] | 1.2 | 10.2 |  |  |  |  |  | 
CC1(C)N=C(N)N=C(N)N1c1ccc(Cl)cc1 [CYCLOGUANIL] |  |  |  |  | 2.6 | 82.1 |  | 31.5
CCc1nc(N)nc(N)c1-c1cccc(Cl)c1 |  |  | 12.7 |  | 0.3 | 2.4 | 2.7 | 8
NC(=O)c1ccc[n+]([C@H]2O[C@@H](COP(=O)([O-])OP(=O)(O)OC[C@H]3O[C@@H](n4cnc5c(N)ncnc54)[C@H](OP(=O)(O)O)[C@@H]3O)[C@H](O)[C@@H]2O)c1 [NICOTINAMIDE ADENINE DINUCLEOTIDE PHOSPHATE] |  |  |  |  | 4.7 | 14.5 |  | 3.09
